Article PMC12040169 (PLOS Biology, 2025)

Experiment: in vitro
Details: human, hela cells, % viability

| Compound | viability at 28.5 h, 10 µM [%] | viability at 28.5 h, 10 µM (bulk resorufin, single well) [%] |
| --- | --- | --- |
| O=C(O)C1(NS(=O)(=O)c2ccc(Cl)cc2)CCCCC1 [CBK028566] | 111 | – |
| O=C(N[C@H]1CCN2C(=O)N(c3cccc4nsnc34)C(=O)[C@@H]2C1)c1ccnc(Cl)c1 [CBK289545] | 91.2 | – |
| Cc1ncsc1CCOc1nccnc1NC(C)C [CBK115728] | 106 | – |
| O=C(Cc1ccc(F)cc1)N1CC[C@@H](c2ccccc2)[C@H](O)C1 [CBK283714] | 84.5 | – |
| CC(C)[C@H](CO)Nc1cncc(-c2ccc(F)cc2F)n1 [CBK065883] | 92.3 | – |
| O=S(=O)(NC1CCCCC1)c1ccc(S(=O)(=O)N2CCOCC2)cc1 [CBK269618] | 102 | – |
| OCC1CCCN1c1nccnc1-c1cccc(O)c1 (centres unmarked) [CBK089052] | 109 | – |
| Cc1ccc(C2(c3ccc(C)cc3)CC2C(=O)Nc2ccccc2[N+](=O)[O-])cc1 (centres unmarked) [CBK263591] | 93.3 | – |
| O=C(CSc1nnc(-c2ccc(Cl)cc2Cl)o1)c1ccc2c(c1)OCCO2 [CBK268839] | 113 | – |
| COc1cc(N2CCCNCC2)ncn1 [CBK085485C] | 91.6 | – |
| C[C@H](Nc1cncc(-c2cccnc2)n1)c1ccccc1 [CBK065807] | 96.7 | – |
| Cc1nc(C2CCCN(C(=O)CCn3cccn3)C2)c2sccn12 (centres unmarked) [CBK285234] | 86.7 | – |
| CCOC(=O)N1CCC2(CC1)OCc1cc(C#N)ccc1O2 [CBK131678] | – | 87 |
| c1ccc2c(c1)nc(N1CCOCC1)n2CCN1CCOCC1 [CBK269841] | 99.6 | – |
| Cc1cn(CC(=O)N2CCCC3(CCN(C(=O)c4cc(F)c(F)cc4F)C3)C2)c(=O)[nH]c1=O (centres unmarked) [CBK131561] | 101 | – |
| O=C(O)COc1ccc(Br)cc1/C=C\c1nc(O)c([N+](=O)[O-])c(=O)[nH]1 [CBK267223] | 88.5 | – |
| CC(C)CNc1ncc(-c2ccc(N3CCOCC3)cc2)n2ccnc12 [CBK091273] | 101 | – |
| CCN(Cc1ccccn1)C(=O)NC(C)c1cccc(NC(C)=O)c1 (centres unmarked) [CBK305380] | 92.9 | – |
| O=C(Nc1cccc(Cl)c1)c1cc2cc(O)ccc2cc1O [CBK016894] | 98.2 | – |
| COc1ccc(CNc2cc(-c3cccc(Cl)c3)nc3ccnn23)cc1 [CBK037037] | 95.8 | – |
| Cc1c(C(=O)N2CC(n3cc(C(C)(C)O)nn3)C2)sc2cccc(F)c12 [CBK306398] | 91.4 | – |
| O=C(COc1ccc(F)cc1)N1CCC2(CCNC2)C1 (centres unmarked) [CBK156691C] | 92.5 | – |

| Compound | viability at 28.5 h, 10 µM [%] | viability at 28.5 h, 10 µM (bulk resorufin, single well) [%] |
| --- | --- | --- |
| COCCNc1nc(-c2ccccc2OC)ccc1C(=O)NCCNC(C)=O [CBK105974] | 100 | – |
| COC(=O)c1ccc(NC(=O)CCN2C(=O)c3cccc([N+](=O)[O-])c3C2=O)cc1 [CBK263137] | 98.1 | – |
| Cc1cc(C[C@@H]2COC[C@H]2NCc2ccc(C(F)(F)F)cc2)on1 [CBK285463] | 107 | – |
| CCc1nc2c(Oc3nc4ccccc4s3)cccn2c1N(C)C(=O)C(C)C [CBK147765] | 88.5 | – |
| CC(=O)Nc1ccc(NC(=O)c2ccc(-c3ccc([N+](=O)[O-])cc3)o2)cc1 [CBK266220] | 99.8 | – |
| CC(C)C1OC(NCc2ccccc2Cl)=NC1=O (centres unmarked) [CBK070344] | 95.1 | – |
| CCCN1C(=O)COc2ccc(-c3noc(-c4ccccn4)n3)cc21 [CBK288596] | 92.1 | – |
| O=C(NC(NCc1ccc2c(c1)OCO2)(C(F)(F)F)C(F)(F)F)c1cccnc1 [CBK074397] | 78.8 | – |
| O=C(NCc1nc2ccccc2[nH]1)c1cnc(-c2ccc(Cl)cc2)c(-c2ccco2)c1 [CBK037555] | 106 | – |
| C#CCNCc1ccc(O)cc1 [CBK013235C] | 87.4 | – |
| COc1ccc([C@@]23CC[C@@H](NC(=O)Nc4c(F)ccc(F)c4Cl)C[C@@H]2N(C)CC3)cc1OC [CBK073769T] | 93 | – |
| CCC(C(=O)NCC1CCCN(C(C)C)C1)n1cnc2ccccc21 (centres unmarked) [CBK282706] | 88.6 | – |
| Cc1ccc2c(c1)C1(CC(=O)N(C)C1=O)C(=O)N2CCCOc1ccccc1 (centres unmarked) [CBK075496] | 98.2 | – |
| Fc1ccccc1/C=N/Nc1nccnc1Cl [CBK261711] | 87.8 | – |
| COc1ccc(CN2C(=S)N(c3ccc(OC)cc3)[C@H]3[C@@H]2[C@H]2OC(=O)[C@@H]3C[C@H]2O)cc1 [CBK288934] | 85.4 | – |
| CCOC(=O)c1c(NC(=O)C2CCCCC2C(=O)O)sc(C)c1C (centres unmarked) [CBK265469] | 99.2 | – |
| Cc1cccc(-c2cc(C(=O)O)c(C)o2)c1 [CBK045855] | 87.7 | – |
| Nc1ncnc2c1nc1n2[C@@H]2O[C@H](C1)[C@H](O)C2O (some centres unmarked) [CBK201224] | 108 | – |
| CCCCCOc1ccc(NS(=O)(=O)c2cccc(C(=O)O)c2)cc1 [CBK299795] | 103 | – |
| COc1cccc(OC)c1-c1cn2ccnc2c(N[C@H](CO)C(C)C)n1 [CBK036586] | 99.5 | – |
| Cc1nc(C2CCCCN2C(=O)COc2ccccc2)ncc1C(=O)Nc1ccc(F)cc1 (centres unmarked) [CBK285871] | 98.6 | – |
| Cc1nc(C)n(CC2CCCN(Cc3cn4c(C)cccc4n3)C2)n1 (centres unmarked) [CBK304007] | 97.7 | – |

| Compound | viability at 28.5 h, 10 µM [%] | viability at 28.5 h, 10 µM (bulk resorufin, single well) [%] |
| --- | --- | --- |
| O=C(O)CCc1nc(-c2ccncc2)no1 [CBK288558] | 98.7 | – |
| O=C(Nc1ncnc2c1nc(OCc1ccccc1)n2C1CC(O)C(CO)O1)c1ccccc1 (centres unmarked) [CBK201220] | 95.3 | – |
| COc1ccc(C(=O)N2CCC3(CCN(Cc4ccc(OC(F)(F)F)cc4)C3)C2)cc1OC (centres unmarked) [CBK132148] | 89 | – |
| CC(=O)c1ccccc1NC(C#N)c1ccccc1 (centres unmarked) [CBK057758] | 99.6 | – |
| CC1(COC(=O)N2CCC(OCc3cnc(-c4ccc(S(C)(=O)=O)cc4)cn3)CC2)COC1 [CBK172009] | 86.7 | – |
| CC(C)(C)C(Cn1cccn1)NC(=O)CCC(=O)O (centres unmarked) [CBK286897] | 81.3 | – |
| NC(=O)c1cc(-c2ccccc2)sc1NC(=O)C(Cc1ccccc1)N1C(=O)c2ccccc2C1=O (centres unmarked) [CBK265843] | 104 | – |
| CNC(=O)c1cnc2sc3c(n2c1=O)CCCC3 [CBK288126] | 102 | – |
| N=C1NC(=O)/C(=C/c2ccc(O)c(Cl)c2)S1 [CBK100992] | 109 | – |
| Cc1cc(C(=O)N(C)C2CCCCC2)no1 [CBK057375] | 113 | – |
| Cc1cc(C)n(CC(=O)N2CCCC2c2ccc(C)c(C)c2)c(=O)n1 (centres unmarked) [CBK282991] | 99 | – |
| NCC1CCN(c2cc(C(F)(F)F)c3scc(C(=O)NCCC4=CCCCC4)c3n2)CC1 [CBK028475] | 83.2 | – |
| Cc1ccc(-c2nnc(S)n2/N=C\c2ccccc2OCC(=O)O)cc1 [CBK264408] | 90.7 | – |
| COc1cncc(-c2cncc(Nc3cc(OC)c(OC)c(OC)c3)n2)c1 [CBK065397] | 95.1 | – |
| COc1ccc(F)cc1-c1cccc(CC2(C(=O)NC3CCCCC3)CCOCC2)c1 [CBK285541] | 92.8 | – |
| O=C(COc1ccccc1)N1CCC(Oc2nccnc2OCc2ccc(Cl)c(Cl)c2)CC1 [CBK160718] | 99 | – |
| CSc1ncccc1C(=O)NCc1ccc(NC(C)=O)cc1 [CBK305009] | 97 | – |
| CC(C)(C)c1ccc(NC(=O)N(CCN)Cc2c[nH]c(-c3ccccc3)n2)cc1 [CBK046297C] | 64.9 | – |
| COc1ccccc1-c1cn2ccnc2c(NCc2ccccc2)n1 [CBK037372] | 92.7 | – |
| Oc1nc(O)c2c(n1)NC1(CCC1)[C@@H]1C[C@@H](O)[C@@H](O)[C@H]21 [CBK303249] | 91.4 | – |
| CCOC(=O)C1(c2ccccc2)CCN(C(=O)CC(C)(C)N)CC1 [CBK137117] | – | 96.6 |
| Cc1nc(SCC(=O)NC(C)c2cccnc2)oc1C (centres unmarked) [CBK282198] | 93.2 | – |

| Compound | viability at 28.5 h, 10 µM [%] | viability at 28.5 h, 10 µM (bulk resorufin, single well) [%] |
| --- | --- | --- |
| CCCn1cnnc1C(C)NC(=O)Nc1ccnn1CC1CCCCC1 (centres unmarked) [CBK306800] | 105 | – |
| CCN(CC)C(=O)Cn1ncc2c3sc(C)cc3n(C)c2c1=O [CBK284156] | 92.9 | – |
| O=C(O)C1C2CCC(CC2)C1C(=O)N1CCN(Cc2ccccc2Cl)CC1 (centres unmarked) [CBK270336] | 100 | – |
| O=C(COC(=O)c1ccc2c(c1)C(=O)N(c1ccc(Oc3ccccc3)cc1)C2=O)c1ccc(Br)cc1 [CBK261607] | 105 | – |
| O=C(CCc1ccc(F)cc1)N1CCC(c2cccc(Cc3ccccc3)n2)CC1 [CBK286511] | 114 | – |
| c1ccc2c(CCN3CCN(c4nccnc4OC4CCCCC4)CC3)c[nH]c2c1 [CBK082847T] | 100 | – |
| O=C(Nc1ccc(F)cc1)c1[nH]c2ccccc2c1NS(=O)(=O)c1ccc(C(F)(F)F)cc1[N+](=O)[O-] [CBK050090] | 90.1 | – |
| COc1cc(/C=N/n2cnnc2)ccc1OCCOc1ccc(C(C)(C)C)cc1 [CBK263762] | 88.8 | – |
| O=C(Cn1nnc2ccccc21)N/N=C\c1cccc(Cl)c1Cl [CBK262931] | 92.4 | – |
| Cc1nn(C)c(C)c1CCC(=O)NCC1CN(c2ccccc2)CCO1 (centres unmarked) [CBK307199] | 103 | – |
| O=C(O)c1nccnc1-c1ccc(Cn2ccc3ccccc32)cc1 [CBK050811] | 100 | – |
| CCCn1c(SC(C)C(=O)c2cc(C)n(-c3ccc(Cl)cc3)c2C)n[nH]c1=O (centres unmarked) [CBK295595] | 86.2 | – |
| Cc1cc(COC(=O)N2CCSCC2)cc(C)n1 [CBK200153] | 107 | – |
| O=C(O)CCC(=O)N1N=C2C(=Cc3cccc([N+](=O)[O-])c3)CCCC2C1c1cccc([N+](=O)[O-])c1 (centres unmarked) [CBK296071] | 122 | – |
| COc1cc2c(cc1OC)CN(C(=O)CSc1nnc3ccccn13)CC2 [CBK287814] | 94.8 | – |
| Clc1ccccc1COc1cccc(/C=N/Nc2nc(N3CCCC3)nc(N3CCCC3)n2)c1 [CBK019076] | 89.8 | – |
| CC(=O)NCc1cccc(-c2cc(C(=O)O)cnc2-c2ccc(Cl)cc2)c1 [CBK156194] | 90.9 | – |
| CCOC(=O)N1CCN(C2CCCN(Cc3c(C)nn(C)c3Cl)C2)CC1 (centres unmarked) [CBK306853] | 96.2 | – |
| COc1ccc(CNC(=O)C2CCCN(S(C)(=O)=O)C2)cc1OC (centres unmarked) [CBK299830] | 90.2 | – |
| NCc1ccc(-c2nc3ccccc3[nH]2)nc1 [CBK024396C] | 87.7 | – |
